{
  "source": "patent US20250017848A1",
  "about": "“CARRIER OR AUXILIARY MATERIAL OF OPHTHALMIC PREPARATION, PREPARATION METHOD THEREFOR, AND APPLICATION THEREOF” (CHENGDU RUIMU BIOPHARMACEUTICALS CO., LTD., priority 2021, published 2025)",
  "key": {"[1]": {"assay": "API concentration in rat vitreous body after eye drops (LC/MS/MS)", "assay_type": "in vivo, Sprague Dawley (SD) rats", "settings": "0.5 h after eye drops, 20 μL/eye; for concentration at 0.5 h: Sprague Dawley, rat, vitreous body, topical, read-out: API concentration in the vitreous body (vitreum) of rats", "procedure": "Unless otherwise stated, the method for verifying the result of delivering medicaments to the posterior segment of the eye was as follows:\nExperimental instrument and equipment: High performance liquid chromatography, model: LC-20AD (Shimadzu, Japan); mass spectrometer: model: API4000 triple quadrupole mass spectrometer (Applied Biosystems, USA); chromatographic column: Fortis Pace C18 […], 2.1×30 mm (Fortis, UK).\nRats: Healthy adult Sprague Dawley (SD) rats were divided into a test group and a control group, with 6 eyes in each group. The test group received eye drops of the ophthalmic preparation prepared in the Example of the present invention, while the control group received the suspension of medicament (2 mg) in 5 mL of physiological saline (vortex shaking prior to use), at a dosage of 20μL/eye. 0.5 h or 1 h after administration, the animals were euthanized, and the vitreous bodies were quickly collected. The vitreous samples were homogenized and stored at-80° C. To 10 μL of vitreous homogenate, was added 90 μL of 95% ethanol, and then the solution was mixed under ultrasonic for 2 min, followed by vortex mixing for 1 min, to obtain the vitreous homogenate; to 50 μL of the homogenate, was added 175 μL of methanol, and then the resultant solution was vortex mixed for 3 min, and centrifuged at 4° C. and 12000 rpm for 10 min. The supernatant was filtered using a 0.45 μm needle filter. The filtrate was subjected to LC/MS/MS (Positive ion mode, MRM SCAN) analysis."}, "[2]": {"tested_on": "human cytomegalovirus strains HCMV-AD169", "assay": "In vitro inhibitory activity against human cytomegalovirus (CPE in MRC-5 cells)", "assay_type": "cell-based", "settings": "for CPE of each well: 4 wells", "procedure": "The eye drop delivery systems of ganciclovir prepared in the Examples were tested for its in vitro inhibitory activities against human cytomegalovirus (HCMV).\nHuman embryo lung fibroblasts (MRC-5) infected with human cytomegalovirus strains HCMV-AD169 were chosen and used in the experiment, and the antiviral activity of ganciclovir was investigated with half effective dose (EC50). Four groups were included in the experiment, that is, the test group of the eye drop delivery systems prepared in the Examples, the test group of ganciclovir technical drug, the negative control group (MRC-5 cells), and the positive control group (MRC-5 cells infected with HCMV-AD169). The samples of both test groups were diluted with the culture media to obtain 6 diluted concentrations: 500 μg/mL, 250 μg/mL, 125 μg/mL, 62.5 μg/mL, 31.25 μg/mL, and 15.63 μg/mL, and 4 wells were set for each diluted concentration. Cytopathic effect (CPE) was used as an indicator: 0 for no cytopathy, 1 for ≤25% cytopathy, 2 for 25%-50% cytopathy, 3 for 50%-75% cytopathy, and 4 for 75%-100% cytopathy. The half effective dose (EC50) was calculated using Reed-Munch method: EC50=10n; n=[(logarithm of the dilution degree corresponding to an efficiency of >50%)+(percentage of >50% efficiency−50%)/(percentage of >50% efficiency−percentage of <50% efficiency)×logarithm of the dilution coefficient.\nThe experimental procedures were as follows: MRC-5 cells were adjusting to approximate 1.5×10^5/mL, and then added a 96 well plate, 100 μL of culture media for each well. The plate was cultured in a 37° C., 5% CO2 cell incubator, and then the supernatant was discarded after the cells adhered to the wall as a monolayer. Except for the control groups, […] were added to each well of both test groups at a concentration of 100×TC50 (half of the virus infected cells obtained in the pre-experiment) and then incubated for 2 h. The supernatant was discarded. A series of test samples were added at 100 μL/well, and then the plate was further cultivated. The CPE of each well was observed. When the CPE of the positive control group reached more than 90%, the CPE of each well was recorded, and the half effective dose (EC50) was calculated using the Reed Munch method."}, "[3]": {"tested_on": "Haemophilus influenza ATCC49247", "assay": "In vitro bacteriostasis test (MIC, broth microdilution)", "assay_type": "cell-based", "settings": "read-out: Minimum inhibitory concentration (MIC)", "procedure": "(§1) The in vitro bacteriostasis test (MIC) was carried out on the moxifloxacin eye drop delivery system prepared in the Example. The moxifloxacin technical drug was used as the control, while the moxifloxacin eye drop delivery system prepared in Example 6 was used as the test sample, to prepare a drug sensitive plate, so that the drug sensitive plate contained 7-8 diluted concentrations of moxifloxacin technical drug (the control) and the test sample, which was obtained by dilution in a ratio of 1:2. 25 bacterial strains incubated for 18 h-24 h were chosen using inoculation loop, and transferred into sterile physiological saline to form a bacterial suspension equivalent to 0.5 MCF; the bacterial suspension was added to the liquid drug sensitive media, in which the ratio of the bacterial suspension to the liquid media was 1:200, and mixed well, then 100 μL of diluted bacterial solution was added to each well; the media was incubated at 35° C.±2° C. for 16-20 h; the growth of bacteria in each well was determined by turbidity, and observed from low concentration to high concentration. The minimum drug concentration that could inhibit bacterial growth was the MIC of the drug."}, "[4]": {"tested_on": "Pseudomonas aeruginosa ATCC27853", "assay": "In vitro bacteriostasis test (MIC, broth microdilution)", "assay_type": "cell-based", "settings": "read-out: Minimum inhibitory concentration (MIC)", "procedure": "as §1"}, "[5]": {"tested_on": "Staphylococcus aureus ATCC29213", "assay": "In vitro bacteriostasis test (MIC, broth microdilution)", "assay_type": "cell-based", "settings": "read-out: Minimum inhibitory concentration (MIC)", "procedure": "as §1"}, "[6]": {"tested_on": "Enterococcus faecalis ATCC29212", "assay": "In vitro bacteriostasis test (MIC, broth microdilution)", "assay_type": "cell-based", "settings": "read-out: Minimum inhibitory concentration (MIC)", "procedure": "as §1"}, "[7]": {"tested_on": "Escherichia coli ATCC25922", "assay": "In vitro bacteriostasis test (MIC, broth microdilution)", "assay_type": "cell-based", "settings": "read-out: Minimum inhibitory concentration (MIC)", "procedure": "as §1"}, "[8]": {"tested_on": "Streptococcus pneumoniae ATCC49619", "assay": "In vitro bacteriostasis test (MIC, broth microdilution)", "assay_type": "cell-based", "settings": "read-out: Minimum inhibitory concentration (MIC)", "procedure": "as §1"}, "Streptococcus pneumoniae": {"tested_on": "Streptococcus pneumoniae", "assay": "In vitro bacteriostasis test (MIC, broth microdilution)", "assay_type": "cell-based", "settings": "3 unnamed strains (one per table line), read-out: Minimum inhibitory concentration (MIC)", "procedure": "as §1"}},
  "note": "“And” between values parts separate entries of the source, which are not always exact repeats. Equal values may be shown once.",
  "data": [
    {"smiles": "O=C(O)CCCC[C@@H]1CCSS1", "note": "(racemic) [lipoic acid]", "values": [
      {"measurement": "API concentration in the vitreous body (vitreum) of rats", "setting": "[1]", "result": "< 1", "unit": "ng/g"}
    ]},
    {"smiles": "Nc1nc(O)c2ncn(COC(CO)CO)c2n1", "note": "[Ganciclovir technical drug, ganciclovir]", "values": [
      {"measurement": "Effective rate", "setting": "[2]; 15.63 μg/mL", "result": 21, "unit": "%"},
      {"measurement": "CPE of each well", "setting": "[2]; 15.63 μg/mL", "result": "4 (4 for 75%-100% cytopathy) and 3 (3 for 50%-75% cytopathy)"},
      {"measurement": "Effective rate", "setting": "[2]; 31.25 μg/mL", "result": 35, "unit": "%"},
      {"measurement": "CPE of each well", "setting": "[2]; 31.25 μg/mL", "result": "3 (3 for 50%-75% cytopathy)"},
      {"measurement": "Effective rate", "setting": "[2]; 62.5 μg/mL", "result": 64, "unit": "%"},
      {"measurement": "CPE of each well", "setting": "[2]; 62.5 μg/mL", "result": "2 (2 for 25%-50% cytopathy) and 3 (3 for 50%-75% cytopathy)"},
      {"measurement": "Effective rate", "setting": "[2]; 125 μg/mL", "result": 77, "unit": "%"},
      {"measurement": "CPE of each well", "setting": "[2]; 125 μg/mL", "result": "2 (2 for 25%-50% cytopathy) and 1 (1 for ≤25% cytopathy)"},
      {"measurement": "Effective rate", "setting": "[2]; 250 μg/mL", "result": 91, "unit": "%"},
      {"measurement": "Effective rate", "setting": "[2]; 500 μg/mL", "result": 97, "unit": "%"}
    ]},
    {"smiles": "COc1c(N2C[C@@H]3CCCN[C@@H]3C2)c(F)cc2c(=O)c(C(=O)O)cn(C3CC3)c12", "note": "[Moxifloxacin, moxifloxacin]", "values": [
      {"measurement": "MIC", "setting": "[3]", "result": "≤ 0.032", "unit": "µg/mL"},
      {"measurement": "MIC", "setting": "[4]", "result": 4, "unit": "µg/mL"},
      {"measurement": "MIC", "setting": "[5]", "result": 0.12, "unit": "µg/mL"},
      {"measurement": "MIC", "setting": "[6]", "result": 0.5, "unit": "µg/mL"},
      {"measurement": "MIC", "setting": "[7]", "result": 0.06, "unit": "µg/mL"},
      {"measurement": "MIC", "setting": "[8]", "result": 0.12, "unit": "µg/mL"},
      {"measurement": "MIC", "setting": "Streptococcus pneumoniae", "result": 0.25, "unit": "µg/mL"}
    ]},
    {"smiles": "C[C@@H]1C[C@H]2[C@@H]3CCC4=CC(=O)C=C[C@]4(C)[C@@]3(F)[C@@H](O)C[C@]2(C)[C@@]1(O)C(=O)CO", "note": "[dexamethasone]", "values": [
      {"measurement": "concentration at 0.5 h", "setting": "[1]", "result": "< 1", "unit": "ng/g"}
    ]},
    {"smiles": "C[C@H]1c2cccc(O)c2C(=O)C2=C(O)[C@]3(O)C(=O)C(C(N)=O)=C(O)[C@@H](N(C)C)[C@@H]3[C@@H](O)[C@@H]21", "note": "[doxycycline]", "values": [
      {"measurement": "concentration at 0.5 h", "setting": "[1]", "result": "< 1", "unit": "ng/g"}
    ]}
  ]
}
